We go through one molecule from PMC8305652, “Copper(II) Complexes Containing Natural Flavonoid Pomiferin Show Considerable In Vitro Cytotoxicity and Anti-inflammatory Effects” (International Journal of Molecular Sciences, 2021).

The test system of one experiment is osteosarcoma (HOS). Kind of experiment: in vitro cytotoxicity, MTT assay. The conditions noted are these: mean ± SD, at least three independent experiments. Format: cell-based, human. On the technique in general: Tetrazolium dyes change colour on reduction, which living cells bring about.
The test system of experiment [1] is 518A2, Panc-1, MCF-7/Topo, KB-V1/Vbl, DLD-1, U-87 MG cancer cell lines. More on the design: method as in PMID 27936296. The note with it: range over cell lines; read-out: IC50 values on the mentioned cancer cell lines; cited from earlier work.
Experiment [2] has as its system Ea.Hy 926 endothelial hybrid cells. More on the design: method as in PMID 27936296. The conditions noted are these: read-out: IC50 Ea.Hy 926 healthy endothelial hybrid cells; cited from earlier work.
Experiment [3] concerns A2780 cells. As to the kind of experiment: cell cycle analysis by flow cytometry. Format: cell-based, human. The note with it: A2780, 15 µM, 24 h; untreated control 21.4 ± 0.8%. The protocol:
Human ovarian cancer cell line A2780 (Sigma, Darmstadt, Germany) were used for this study. Cells were cultivated at 37 °C under a 5% CO2 atmosphere in an RPMI 1640 medium (Sigma Aldrich, Darmstadt, Germany) supplemented with (the final concentrations in medium): L-glutamine (2 mM), fetal bovine serum (FBS, 10%) and PenStrep (5 U penicillin, 50 µg streptomycin/mL).
After 24 h, the cells were washed once with PBS (0.1 M, pH 7.4) and cell cycle analysis was performed according to the protocol of BD Cycletest^TM Plus DNA kit (Becton Dickinson, Franklin Lakes, NJ, USA). Measurements were performed using BD FACSVerse flow cytometer (Becton Dickinson, Franklin Lakes, NJ, USA) in 3 independent experiments, each done in duplicate, while at least 5 × 10^3 events were recorded for each sample.

Experiment [4] deals with primary culture of human hepatocytes (Hep). As to the kind of experiment: toxicity against primary culture of human hepatocytes. Format: cell-based. The conditions noted are these: tested range 0.1–100 μM.
The test system of experiment [5] is cisplatin-resistant ovarian carcinoma (A2780R). As to the kind of experiment: in vitro cytotoxicity, MTT assay. Format: cell-based, human. The note with it: mean ± SD, at least three independent experiments. The protocol: (§1) The testing was performed on the following human cancer cell lines: breast adenocarcinoma (MCF-7), osteosarcoma (HOS), lung adenocarcinoma (A549), prostate adenocarcinoma (PC-3), ovarian carcinoma (A2780), cisplatin-resistant ovarian carcinoma (A2780R) and colorectal adenocarcinoma (Caco-2) obtained from ATCC collection of cell lines and cultivated according to producer’s instructions.

Experiment [6] concerns lung adenocarcinoma (A549). As to the kind of experiment: in vitro cytotoxicity, MTT assay. Format: cell-based, human. The note with it: mean ± SD, at least three independent experiments. The protocol:
as §1

Experiment [7] relates to breast adenocarcinoma (MCF-7). Kind of experiment: in vitro cytotoxicity, MTT assay. The note with it: mean ± SD, at least three independent experiments. Format: cell-based, human. As for the experimental part:
as §1

For experiment [8], the system named is prostate adenocarcinoma (PC-3). As to the kind of experiment: in vitro cytotoxicity, MTT assay. Format: cell-based, human. The note with it: mean ± SD, at least three independent experiments. As for the experimental part: as §1
For experiment [9], the system named is ovarian carcinoma (A2780). As to the kind of experiment: in vitro cytotoxicity, MTT assay. Format: cell-based, human. The note with it: mean ± SD, at least three independent experiments. As for the experimental part:
as §1

In experiment [10] the test system is caspase 3 (Casp-3) in THP-1 cells. As to the kind of experiment: Western blotting of apoptosis-related proteins. Format: cell-based, human. The note with it: THP-1, complexes 4 µM, cisplatin 10 µM, 24 h, Western blot. The protocol: In addition to the above-mentioned methods, the Western blotting method was used to shed light on the mechanisms associated with caspase 3 activation in the THP-1 cells. Two and a half milliliters of floating THP-1 monocytes resuspended in a serum-free RPMI 1640 medium were seeded into 6-well plates at the concentration of 10^6 cells/mL. Two hours later, complexes 3 and 5 were added at the concentration level of 4 µM. After 24 h incubation, the cells were collected by centrifugation (3000 g/5 min/4 °C), washed by cold PBS and resuspended in an ice-cold lysis buffer (50 mM Tris-HCl pH 7.5, 1 mM EGTA, 1 mM EDTA, 1 mM sodium orthovanadate, 50 mM sodium fluoride, 5 mM sodium pyrophosphate, 270 mM sucrose) with Roche cOmplete protease inhibitors (Roche Diagnostics, Basel, Switzerland). The cell lysates were centrifuged at 3000 g/5 min/4 °C and supernatants were mixed with a 5x Laemmli buffer [containing 250 mM Tris-HCl pH 6.8, 10% (w/v) SDS, 30% (v/v) glycerol, 5% (v/v) β-mercaptoethanol, 0.04% (w/v) bromphenol blue] and incubated at 70 °C for 5 min. […] The membranes were incubated at 4 °C for 16 h with a primary anti-cleaved caspase 3 (p17) antibody at the dilution 1:1000 (Cell Signaling, Danvers, MA, USA; products No. 9664), and an Apoptosis WB Cocktail (Abcam, Cambridge, UK; product No. ab136812) at the dilution recommended by the provider to detect β-actin, cleaved poly-(ADP-ribose) polymerase (PARP) and pro-caspase 3. After washing in a TBST buffer, the secondary anti-rabbit IgG antibody (Sigma-Aldrich, product No. A0545) was diluted 1:2500 and applied to the membranes, which were then incubated for 1 h at the laboratory temperature (~22 °C). The amount of bound secondary antibody was determined using an ECL reagent (Bio-Rad, Hercules, CA, USA). Chemiluminescence was detected using a Syngene PXi4 chemiluminescence imaging system (Cambridge, UK).
A general note: In western blotting, separated proteins are transferred to a membrane and probed.

Experiment [11] concerns A2780 cells. As to the kind of experiment: Annexin V/propidium iodide cell death assay, flow cytometry. Format: cell-based, human. The conditions noted are these: A2780, 15 µM, 24 h; mean of three experiments. As for the experimental part: Both methods were performed according to the manufacturers’ protocols with 1 modification in the caspase induction assay, which was the use of the CellEvent^TM Caspase-3/7 Green Detection Reagent only for detection of Caspase-3/7 activation. […] After 24 h, the cells were washed once with PBS (0.1 M, pH 7.4), detached with trypsin (0.25% in ethylenediaminetetraacetic acid (EDTA), Sigma-Aldrich), resuspended in 500 µL of the culture medium and divided into 2 separate tubes, the first for apoptosis assay and the second one for caspase activation analysis. After staining with appropriate dyes, samples were analyzed on a BD FACSVerse flow cytometer (Becton Dickinson, Franklin Lakes, NJ, USA) in 3 separate experiments, while at least 10^4 events were recorded for each sample prepared in duplicate.
A general note: Flow cytometry measures light scatter and fluorescence of single cells or particles in a stream.

Usually IC50 stands for the concentration that inhibits the measured activity by half. Take `N.N.[Cl][Pt][Cl]` [cisplatin, reference compound]: the IC50 with osteosarcoma (HOS) is 30 ± 5.9 µM; in [1], 4 to 32.6 µM; in experiment [2] it was 17.3 ± 1.9 µM; in experiment [4] it was greater than 80 µM; in [5] it was greater than 80 µM; in experiment [6] it was greater than 80 µM. The IC50 in experiment [7] is 30.8 ± 1.8 µM; in [8], greater than 80 µM; in [9], 26.3 ± 2.1 µM. The “cells in the S phase of the cell cycle” value with A2780 cells [3] was found to be 51.4 ± 2.2%. Further, the “proteolytically activated Casp-3 (verified by cleaved PARP-1)” value in experiment [10] is listed as “detected”. Further, the “Annexin V +/PI + cells (late apoptotic/secondary necrotic)” value with A2780 cells [11] amounted to 23.7 ± 2.0%. For the same molecule, the “Annexin V +/PI − cells (early apoptotic)” value in the experiment with A2780 cells [11] was 41.5 ± 0.8%.
